Key:
GFP-MBNL-rCUG^exp foci = test: Nuclear foci disruption, FISH/confocal with GFP-MBNL1 in DM1 model HeLa cells; assay type: cell-based
Method: (§1) FIG. 2A-C. (a) Representative confocal microscope images showing the GFP-MBNL-rCUG^exp foci disruption by compounds 1a and 2a. (b) Percent of foci area per cell after treatment of ligands for 48 h. The sequestration and dispersion of endogenous MBNL under the treatment of ligand are quantitatively measured. Error bars represent standard errors of mean from at least four independent experiments, two-tail t-test *P<0.005. Note: This was a head-to-head comparison between compounds 1a and 2a. […] The difference is attributed to variability in cells and conditions. (c) Cytotoxicity profile of compound 2a.
To evaluate the ability of dimer 2a to disrupt the […] in DM1 model cells, a standard fluorescence in situ hybridization experiment using exogenous MBNL was performed (FIG. 2a) (see Jahromi et al., ACS Chem. Biol. 2013, 8, 1037-1043). Here, GFP-MBNL1 was employed because of its intense signal and ability to easily monitor the location of the MBNL1 in live cells. Thus, normal HeLa cells were transfected with a plasmid containing GFP-MBNL1. To generate DM1 model cells, these HeLa cells were also transfected with a DMPK plasmid containing (CTG)960. […] The presence of MBNL1 was indicated as a green color from GFP signal for GFP-MBNL1 (Column 2), whereas (CUG)960 was detected by a complementary sequence (CAG)10 conjugated with a Cy3 dye and represented by a red color (Column 3). […]

[1] = test system: Drosophila flies (gmr-GAL4>UAS-i(CTG)480; CTG60 control); test: Rough eye phenotype in DM1 Drosophila model; assay type: in vivo; conditions: for eye structure of control flies: 400 μM, CTG60 Drosophila flies
Method: (§2) FIG. 4A-C. Efficacy of 1a and 2a in DM1 Drosophilia fly mode. (a) Improvement in adult rough eye phenotype. Each experiment was conducted in triplicate. (b) Effect of ligands on the control Drosophilia larvae (24B−GAL4>UAS−(CTG)60). (c) Dose-dependent effect of ligands on the DM1 larvae (24B−GAL4>UAS−i(CTG)480). Each experiment was conducted in triplicate, 10 individual larvae for each trial. Error bars represent standard deviation, two tail t-test *P<0.05, **P<0.01, ***P<0.001.
(§3) Drosophila lines were cultured in standard cornmeal medium supplemented with dry yeasts. Fly lines bearing UAS-(CTG)60 and UAS-(CTG)480 were kind gifts of Prof. Rubén Artero Allepuz (Universitate de València, Estudi General, Spain). The gmr-GAL4 and […] lines were used to drive UAS transgene expression in eye and muscles respectively. Ligands 1a and 2a were dissolved in ddH2O and mixed with fly food. Genetic crosses were set up in drug-containing fly food at 21.5° C. for external eye assay, and at 25° C. for larval crawling assay.

[2] = test system: Drosophila larvae (24B-GAL4>UAS-i(CTG)480; (CTG)60 control); test: Larval crawling assay; assay type: in vivo; conditions: for mobility of normal larvae: 400 μM in fly food, control (CTG)60 larvae
Method: as §2
An individual larva generated from transgenic flies was placed on a Petri dish over graph paper, and the number of grid lines crossed by the larva in 1 min was recorded.
as §3
Larval crawling assay was performed as previously described (Lanson et al., Hum. Mol. Genet. 2011, 20, 2510-2523). Ten wandering third instar larvae were washed in ddH2O and placed on a 2% agarose gel in a 15-cm Petri dish with gridlines spaced at 0.5 cm. The larvae were allowed to acclimate for a period of 1 min, and the total number of gridlines that the posterior end of the larvae passes in 1 min was determine. Each set of experiment was repeated independently for three times using larvae collected from separate genetic crosses.

[3] = test system: MBNL1-rCUG^exp nuclear foci; test: Nuclear foci quantification with endogenous MBNL1 (immunofluorescence) in DM1 model cells; assay type: cell-based; conditions: 48 h
Method: as §1
In addition, a parallel experiment using endogenous MBNL1 in place of GFP-MBNL1 was conducted to quantify foci reduction in a model that more closely resembles DM1 patient cells. The endogenous MBNL1 was detected by an immunofluorescence technique (Alexa Fluor® 488 dye-labeled antibody) (Wong et al., J. Am. Chem. Soc. 2014, 136, 6355-6361). […] Incubation of 2a at 10 μM decreased the foci area to ca. 36%, but a similar level was also observed for the 100 μM treatment. It is encouraging that dimeric ligand 2a is as active at 1 μM as monomeric ligand 1a is at 100 μM. However, the lack of an obvious dose dependence and failure to fully dissolved nuclear foci at 100 μM may indicate a cellular penetration issue for 2a. Further study is underway.
ITC, EMSA, confocal microscopy, IR splicing, and the reversal of rough-eye phenotype assays were conducted as previously described (Wong et al., J. Am. Chem. Soc. 2014, 136, 6355-6361). The cytotoxicity of 2a was accessed using a published protocol (Vichai et al., Sulforhodamine B colorimetric assay for cytotoxicity screening, Nat. Protoc. 2006, 1, 1112-1116).

Row | Compound | foci dispersion (GFP-MBNL1) (GFP-MBNL-rCUG^exp foci; 1, 10, and 100 μM) | rough eye phenotype ([1]; 50 μM in fly food, gmr-GAL4>UAS-i(CTG)480 flies) | eye structure of control flies [1] | improvement in the DM1 larva's mobility ([2]; 20 μM, DM1 larvae) [%] | crawling defect rescued ([2]; 100 μM, DM1 larvae) | mobility of normal larvae [2] | nuclear foci remained after treatment ([3]; 1 μM) | foci area after treatment ([3]; 10 μM) | foci dispersion (GFP-MBNL1) (GFP-MBNL-rCUG^exp foci; 100 μM) | crawling defect rescued ([2]; 200 μM, DM1 larvae) [%] | crawling defect rescued ([2]; 400 μM, DM1 larvae) [%] | nuclear foci remaining / foci area ([3]; 100 μM)
1 | N=C(NCCCCNc1nc(N)nc(N)n1)c1ccc(C(=N)NCCCCNc2nc(N)nc(NCCCn3cc(CNc4nc(N)nc(NCCCCNC(=N)c5ccc(C(=N)NCCCCNc6nc(N)nc(N)n6)cc5)n4)nn3)n2)cc1 [Compound 2a] | foci dispersion was observed | partial reversal of rough eye phenotypes | did not change the fly's eye structure | 37 | nearly full recovered | the mobility is not affected | approximately 72% | ca. 36% |  |  |  | 
2 | N=C(NCCCCNc1nc(N)nc(N)n1)c1ccc(C(=N)NCCCCNc2nc(N)nc(N)n2)cc1 [Compound 1a] |  |  | did not change the fly's eye structure |  | ca. 14% | the mobility is not affected |  |  | foci dispersion was observed | ~54 | ~84 | ca. 90%

Source: patent US10266520B2, “Bisamidinium-based inhibitors for the treatment of myotonic dystrophy” (The Board of Trustees of the University of Illinois, priority 2014, dated 2019)
